This series is described as follows: method code SF-HPLC, from DOI: 10.1016/0378-5173(85)90030-4.

Molecules are shown by their SMILES.

This passage reports logP results from the SangsterLogP compilation.

For the compound `CCCC(=O)OCn1ncc2c(=O)[nH]cnc21`, the logP (in general, a log measure of how a compound divides between an organic and an aqueous phase) came to 0.6.

`CC(C)(C)C(=O)OCn1cnc2c(cnn2COC(=O)C(C)(C)C)c1=O` gave a logP of 2.5. As for `CCOC(=O)OCn1ncc2c(=O)[nH]cnc21`, the logP is 0.21. `CCCC(=O)OCn1cnc2c(cnn2COC(=O)CCC)c1=O` registered a logP of 1.82. On to `CCCC(=O)OCn1cc2c(=O)[nH]cnc2n1`, for which the logP came out at 0.33. Take `CC(C)(C)C(=O)OCn1cc2c(=O)n(COC(=O)C(C)(C)C)cnc2n1`: the logP amounted to 2.34. In the case of `CC(C)(C)C(=O)OCn1cc2c(=O)[nH]cnc2n1`, the logP stood at 0.79. Compound `CC(C)(C)C(=O)OCn1ncc2c(=O)[nH]cnc21` came in with a logP of 1.07. `O=C(OCn1ncc2c(=O)[nH]cnc21)c1cccnc1` registered a logP of 0.27. Take `CC(=O)OCn1ncc2c(=O)[nH]cnc21`: the logP was -0.35.

For `O=C(OCn1ncc2c(=O)[nH]cnc21)c1ccccc1`, the logP was found to be 1.5.

On to `CCN(CC)C(=O)CCC(=O)OCn1ncc2c(=O)[nH]cnc21`, for which the logP was -0.22.
